Experimental data published in paper PMC7665585, “Antidepressive effect of an inward rectifier K^+ channel blocker peptide, tertiapin-RQ” (PLoS ONE, 2020).
Bridge positions count the residues as written; N and C are the ends. Peptide text beside a SMILES is read from it.

System: Male ICR mice
Assay: Balance beam test
Assay type: in vivo, mouse
Conditions: i.c.v.; 10 mm and 6 mm beams, central 60 cm
Description: We performed mouse behavioral experiments in accordance with our previous study. Male ICR mice (n = 199 in total) aged 5 weeks old were purchased from Shimizu Laboratory Supplies (Kyoto, Japan) and maintained in an animal facility for 7–12 days. They had free access to food and water and were kept in a 12-h light/dark cycle (08:00–20:00). Experiments were carried out between 11:00 and 17:00 in a quiet and air-conditioned experimental room, to which mice were habituated for 30–60 min before each experiment. Animal experiments were performed in accordance with the guidelines of the Physiological Society of Japan and were approved by the Committee for Animal Experiments of Kurashiki University of Science and the Arts. Peptides were dissolved in phosphate-buffered saline (PBS). Peptides were injected intracerebroventricularly (i.c.v.) 30 min before behavioral tests (typically 5 μL/mouse), according to a previous study. The mouse was placed into an anesthetizing jar, to which isoflurane (0.2 mL) was added immediately before. […]
Motor coordination was assessed by measuring the ability to traverse a narrow beam to reach a familiar cage. […] The time required to cross the central 60 cm of the beam was measured.

## CC[C@H](C)[C@@H]1NC(=O)[C@H](CCCNC(=N)N)NC(=O)[C@H](CCCNC(=N)N)NC(=O)[C@H](CC(N)=O)NC(=O)[C@@H]2CSSC[C@@H](C(=O)NCC(=O)N[C@@H](CCCCN)C(=O)N[C@@H](CCCCN)C(N)=O)NC(=O)[C@H](CCCCN)NC(=O)[C@H](CCCCN)NC(=O)[C@H](Cc3c[nH]c4ccccc34)NC(=O)[C@H](CSSC[C@H](NC(=O)[C@H](CC(C)C)NC(=O)[C@H](C)N)C(=O)N[C@@H](CC(N)=O)C(=O)N2)NC(=O)[C@H](CCC(N)=O)NC(=O)[C@H](Cc2c[nH]cn2)NC(=O)[C@@H]2CCCN2C(=O)[C@H]([C@@H](C)CC)NC1=O [Peptide 2, TPN-RQ] (H-ALCNCNRRIIPHQCWKKCGKK-NH2; disulfide 3-14, 5-18)
  time required to cross the beam: longer
